Earlier results, collected in patent US12667577B2, “Pharmaceutical composition, and aprepitant injection and freeze-dried powder injection” (WISDOM PHARMACEUTICAL CO., LTD, priority 2022, dated 2026).
In brackets after ≈: the same amount, converted by molar mass.

Assays:
[1] = target: human substance P neurokinin-1 (NK1) receptor (Homo sapiens, UniProt P25103)
glucocorticoid receptor = target: T1, glucocorticoid receptor (Homo sapiens, UniProt P04150)
T1 sequence (P04150 1-777): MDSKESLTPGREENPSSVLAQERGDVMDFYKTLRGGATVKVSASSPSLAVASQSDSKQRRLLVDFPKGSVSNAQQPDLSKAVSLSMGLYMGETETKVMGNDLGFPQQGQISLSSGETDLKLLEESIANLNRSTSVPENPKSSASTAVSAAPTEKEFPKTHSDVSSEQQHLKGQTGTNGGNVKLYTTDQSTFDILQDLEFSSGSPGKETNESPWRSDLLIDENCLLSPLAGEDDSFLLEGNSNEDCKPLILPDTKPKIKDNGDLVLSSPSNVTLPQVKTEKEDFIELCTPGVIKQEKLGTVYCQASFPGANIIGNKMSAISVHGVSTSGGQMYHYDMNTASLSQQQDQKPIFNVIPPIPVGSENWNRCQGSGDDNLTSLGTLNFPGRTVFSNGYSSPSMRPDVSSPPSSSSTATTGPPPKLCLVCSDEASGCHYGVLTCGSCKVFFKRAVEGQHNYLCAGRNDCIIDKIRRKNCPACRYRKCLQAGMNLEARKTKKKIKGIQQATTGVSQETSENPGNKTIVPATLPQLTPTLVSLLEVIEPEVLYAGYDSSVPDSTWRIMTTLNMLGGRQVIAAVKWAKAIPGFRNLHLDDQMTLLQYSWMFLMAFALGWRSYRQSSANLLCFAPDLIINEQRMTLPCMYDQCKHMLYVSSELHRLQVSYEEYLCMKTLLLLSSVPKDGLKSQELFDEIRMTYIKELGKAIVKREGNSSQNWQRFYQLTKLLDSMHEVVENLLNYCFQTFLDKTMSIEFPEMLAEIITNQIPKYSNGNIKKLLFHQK

[2] = clinical data
[3] = target: T2, 5-hydroxytryptamine receptor 3 (5-HT3) (Homo sapiens, UniProt P46098)
T2 sequence (P46098 24-478): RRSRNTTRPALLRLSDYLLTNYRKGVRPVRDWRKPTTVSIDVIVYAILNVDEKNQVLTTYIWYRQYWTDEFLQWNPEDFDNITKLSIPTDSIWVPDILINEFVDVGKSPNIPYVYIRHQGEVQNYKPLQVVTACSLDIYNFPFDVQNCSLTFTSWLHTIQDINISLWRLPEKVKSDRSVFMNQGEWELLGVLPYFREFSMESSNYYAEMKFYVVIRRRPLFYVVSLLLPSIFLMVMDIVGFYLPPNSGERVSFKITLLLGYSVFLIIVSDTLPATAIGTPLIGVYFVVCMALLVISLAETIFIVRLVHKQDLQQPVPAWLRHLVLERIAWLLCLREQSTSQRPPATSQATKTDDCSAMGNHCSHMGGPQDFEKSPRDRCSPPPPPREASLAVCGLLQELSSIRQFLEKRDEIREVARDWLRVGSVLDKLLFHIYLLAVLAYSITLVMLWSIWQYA

human substance P neurokinin-1 (NK1) receptor, sequence (P25103 whole entry): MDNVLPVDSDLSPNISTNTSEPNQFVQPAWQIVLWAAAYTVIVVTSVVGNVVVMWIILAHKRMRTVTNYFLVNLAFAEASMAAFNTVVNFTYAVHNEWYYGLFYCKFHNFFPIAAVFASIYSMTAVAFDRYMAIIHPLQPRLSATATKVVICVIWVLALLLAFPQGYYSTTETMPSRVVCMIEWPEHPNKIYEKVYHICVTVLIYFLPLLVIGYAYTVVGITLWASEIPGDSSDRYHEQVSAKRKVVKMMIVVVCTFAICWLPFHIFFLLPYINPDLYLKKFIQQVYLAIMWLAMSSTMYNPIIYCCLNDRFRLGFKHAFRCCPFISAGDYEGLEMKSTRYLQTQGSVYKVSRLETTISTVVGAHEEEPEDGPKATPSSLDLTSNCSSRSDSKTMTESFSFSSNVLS

## C[C@@H](O[C@H]1OCCN(Cc2n[nH]c(=O)[nH]2)[C@H]1c1ccc(F)cc1)c1cc(C(F)(F)F)cc(C(F)(F)F)c1 [aprepitant, Aprepitant]
Low dissolution and low permeability
  classification in biopharmaceutics: Class IV
Room temperature
  solubility in ethanol, isopropyl acetate, and acetonitrile: slightly soluble
  solubility in water: 0.55 µg/mL (≈ 1.03 µM)
Dopamine receptor
  affinity to dopamine receptor: low or no affinity
[1]
  affinity to NK1 receptor: high-affinity
Glucocorticoid receptor
  affinity to glucocorticoid receptor: low or no affinity
[2]
  adverse effect rate at injection sites: 0.5%
[3]
  affinity to 5-HT3: low or no affinity
